The values below come from patent publication US20240246966A1, “NEW PYRAZOLO[1,5-a] PYRIMIDINE DERIVATIVES AS SIGMA LIGANDS” (ACONDICIONAMIENTO TARRASENSE, priority 2021, published 2024).

One assay has as its target T1, Human σ1 Receptor (Homo sapiens, UniProt Q99720).
T1 construct: expressed in transfected cells; host or cells: HEK-293
Kind of assay: Human σ1 receptor radioligand assay ([3H](+)-pentazocine, transfected HEK-293 membranes). The following applies: human σ1, [3H](+)-pentazocine 5 nM, binding expressed as Ki, read-out: Binding σ-1. The protocol: Human σ1 Receptor Radioligand Assay
Transfected HEK-293 membranes (7 μg) were incubated with 5 nM of [^3H](+)-pentazocine in assay buffer containing Tris-HCl 50 mM at pH 8. NBS (non-specific binding) was measured by adding 10 μM haloperidol. The binding of the test compound was measured at either one concentration (% inhibition at 1 or 10 μM) or five different concentrations to determine affinity values (Ki). Plates were incubated at 37° C. for 120 minutes. After the incubation period, the reaction mix was then transferred to MultiScreen HTS, FC plates (Millipore), filtered and plates were washed 3 times with ice-cold 10 mM Tris-HCL (pH 7.4). Filters were dried and counted at approximately 40% efficiency in a MicroBeta scintillation counter (Perkin-Elmer) using EcoScint liquid scintillation cocktail.

The target of the next assay is T2, Human σ2/TMEM97 receptor (Homo sapiens, UniProt Q5BJF2).
T2 construct: expressed in transfected cells; host or cells: HEK-293
Kind of assay: Binding assay to human σ2/TMEM97 receptor ([3H]-DTG, transfected HEK-293 membranes). Conditions: human σ2/TMEM97, [3H]-DTG 10 nM, binding expressed as Ki, read-out: Binding σ-2. The protocol: Binding Assay to Human ρ2/TMEM97 Receptor
Transfected HEK-293 membranes (15 μg) were incubated with 10 nM [^3H]-1,3-Di-o-tolylguanidine ( DTG) in assay buffer containing Tris-HCl 50 mM at pH 8.0. NSB (non-specific binding) was measured by adding 10 μM haloperidol. The binding of the test compound was measured at either one concentration (% inhibition at 1 or 10 μM) or five different concentrations to determine affinity values (Ki). Plates were incubated at 25° C. for 120 minutes. After the incubation period, the reaction mix was transferred to MultiScreen HTS, FC plates (Millipore), filtered and washed 3 times with ice-cold 10 mM Tris-HCL (pH 8.0). Filters were dried and counted at approximately 40% efficiency in a MicroBeta scintillation counter (Perkin-Elmer) using EcoScint liquid scintillation cocktail.

A further assay concerns the target sigma-2 (σ2) site (Homo sapiens, UniProt Q5BJF2). The following applies: background statement; cited from earlier work.
Assay [1] has as its system mechanical hypersensitivity in SNI mice. The following applies: spared nerve injury (SNI) mice model of neuropathic pain; cited from earlier work.

T2 sequence (Q5BJF2 whole entry): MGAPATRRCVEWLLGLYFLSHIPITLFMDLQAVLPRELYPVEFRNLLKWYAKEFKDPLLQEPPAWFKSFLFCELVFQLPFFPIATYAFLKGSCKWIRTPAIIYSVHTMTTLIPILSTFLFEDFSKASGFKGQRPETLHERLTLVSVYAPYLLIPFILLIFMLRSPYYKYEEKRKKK
T1 sequence (Q99720 whole entry): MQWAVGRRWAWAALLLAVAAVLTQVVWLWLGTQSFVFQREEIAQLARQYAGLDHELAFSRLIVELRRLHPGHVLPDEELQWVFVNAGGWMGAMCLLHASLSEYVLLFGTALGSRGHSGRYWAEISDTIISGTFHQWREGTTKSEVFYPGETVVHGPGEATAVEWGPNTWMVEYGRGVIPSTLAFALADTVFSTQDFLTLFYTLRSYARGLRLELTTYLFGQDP
Sequence of sigma-2 (σ2) site (Q5BJF2 whole entry): as the sequence (Q5BJF2 whole entry) above

Take `FC(F)(F)c1ccc(-n2ccc3cc(CN4CCCOCC4)cnc32)cn1` [Example 52, 4-((1-(6-(Trifluoromethyl)pyridin-3-yl)-1H-pyrrolo[2,3-b]pyridin-5-yl)methyl)-1,4-oxazepane]: the Ki on Human σ1 Receptor was less than 100 nM; at Human σ2/TMEM97 receptor it was 500 to 1000 nM.

On to `N#Cc1ncccc1-n1ccc2cc(CN3CCC4(CCOCC4)CC3)cnc21` [Example 53, 3-(5-((3-Oxa-9-azaspiro[5.5]undecan-9-yl)methyl)-1H-pyrrolo[2,3-b]pyridin-1-yl) picolinonitrile], for which the figures for the Ki at Human σ1 Receptor and at Human σ2/TMEM97 receptor were less than 100 nM and 500 to 1000 nM, respectively.

On to `FC(F)(F)c1ncccc1-n1ccc2cc(CN3CCC4(CCOC4)CC3)cnc21` [Example 54, 8-((1-(2-(Trifluoromethyl)pyridin-3-yl)-1H-pyrrolo[2,3-b]pyridin-5-yl)methyl)-2-oxa-8-azaspiro[4.5]decane], for which the Ki is less than 100 nM on Human σ1 Receptor and 500 to 1000 nM on Human σ2/TMEM97 receptor.

As for `FC(F)(F)c1ccc(-n2ccc3cc(CN4CC5(CCOCC5)C4)cnc32)cn1` [Example 55, 2-((1-(6-(Trifluoromethyl)pyridin-3-yl)-1H-pyrrolo[2,3-b]pyridin-5-yl)methyl)-7-oxa-2-azaspiro[3.5]nonane], the Ki on Human σ1 Receptor was less than 100 nM; at Human σ2/TMEM97 receptor, 100 to 500 nM.

Regarding `FC(F)(F)c1ncccc1-n1ccc2cc(CN3CC4(CCOCC4)C3)cnc21` [Example 56, 2-((1-(2-(Trifluoromethyl)pyridin-3-yl)-1H-pyrrolo[2,3-b]pyridin-5-yl)methyl)-7-oxa-2-azaspiro[3.5]nonane], the Ki was less than 100 nM at Human σ1 Receptor and greater than 1000 nM on Human σ2/TMEM97 receptor.

Turning to `FC(F)(F)c1cc(-c2cnn3cc(CN4CCC5(CC4)COC5)ccc23)ccn1` [Example 57, 7-((3-(2-(Trifluoromethyl)pyridin-4-yl)pyrazolo[1,5-a]pyridin-6-yl)methyl)-2-oxa-7-azaspiro[3.5]nonane], the Ki on Human σ1 Receptor is less than 100 nM; on Human σ2/TMEM97 receptor, 100 to 500 nM.

With `FC(F)(F)c1cc(-n2ncc3cc(CN4CCC5(CC4)COC5)cnc32)ccn1` [Example 58, 7-((1-(2-(Trifluoromethyl)pyridin-4-yl)-1H-pyrazolo[3,4-b]pyridin-5-yl)methyl)-2-oxa-7-azaspiro[3.5]nonane], the Ki was less than 100 nM on Human σ1 Receptor and 100 to 500 nM at Human σ2/TMEM97 receptor.

Turning to `OCC1(CO)CCN(Cc2cnc3c(-c4ccnc(C(F)(F)F)c4)cnn3c2)CC1` [Example 59, (1-((3-(2-(Trifluoromethyl)pyridin-4-yl)pyrazolo[1,5-a]pyrimidin-6-yl)methyl)piperidine-4,4-diyl)dimethanol], the Ki is less than 100 nM on Human σ1 Receptor and greater than 1000 nM at Human σ2/TMEM97 receptor.

As to `OCC1(CCl)CCN(Cc2cnc3c(-c4ccnc(C(F)(F)F)c4)cnn3c2)CC1` [Example 60, (4-(Chloromethyl)-1-((3-(2-(trifluoromethyl)pyridin-4-yl)pyrazolo[1,5-a]pyrimidin-6-yl)methyl)piperidin-4-yl)methanol], the figures for the Ki on Human σ1 Receptor and at Human σ2/TMEM97 receptor were less than 100 nM and 100 to 500 nM, respectively.

As to (+)-SKF-10047, the “affinity for the sigma-2 (σ2) site” value at sigma-2 (σ2) site is listed as “micromolar affinity”.

Consider UKH-1114, for which the mechanical hypersensitivity result in assay [1] is recorded as “relieved mechanical hypersensitivity”.
